# Legend:
# [1] = tested on: Cryptococcus yeast (CHY3833 and CHY3836); assay: Yeast replication secondary screen (OD600); assay type: cell-based, Cryptococcus neoformans serotype D (deneoformans); details: 10 μM, 12 h at 30°C
# Description: (ii) Yeast replication. CHY3833 and CHY3836 were each grown in YPD liquid overnight at 30°C to saturation and then resuspended in 0.5× YPD at an OD600 of 0.005. Strains were aliquoted into 384-well plates with inhibitors and grown for 12 h at 30°C at […] before OD600 readings were taken. Compounds that caused a >10% decrease in growth were considered yeast growth inhibitors.
# [2] = tested on: normal human dermal fibroblasts (NHDF) cells; assay: Fibroblast cytotoxicity (CellTiter-Glo); assay type: cell-based; details: 10 µM
# Description: PrimaPure normal human dermal fibroblasts (NHDF) cells (Genlatis PH10605A) were cultured and passaged in fibroblast growth medium (Genlatis PM116500) according to the manufacturer’s protocol. NHDF cells (1 × 10^3 per well) were plated in a 384-well plate in cell culture medium. The cells were incubated with each compound of interest at 10 μM concentration for 72 h at 37°C and 5% CO2. Following treatment, CellTiter-Glo (Promega) reagent was used to assay ATP-dependent luminescence and thus provide a measure of cell viability. […] For cytotoxicity dose-response curves (Fig. 4C and Fig. 5C), compounds were titrated from 80 μM to 0.5 μM in duplicates.
SMILES,Yeast Inhibition: % Inhibition [1],Cytotoxicity: Relative Cell Viability (% of Negative Control) [2]
COc1ccc2nc(NS(=O)(=O)c3ccc(Cl)s3)sc2c1 [compound 16934153],-7.4%,76.4 % of Negative Control
CCn1c(SC/C=C\c2ccccc2)nnc1-c1ccncc1 [compound 18558862],36.7%,88.2 % of Negative Control
COc1ccc(SCCCC(=O)Nc2ncnc3sccc23)cc1 [compound 18585630],15.2%,104.7 % of Negative Control
CC(C)Cc1nnc(NC(=O)C(Cl)Cl)s1 [compound 697528],71.6%,96.1 % of Negative Control
CCOC(=O)c1ccc(NC(=O)CC2Sc3ncnn3C2=O)cc1 (stereo not drawn) [compound 2954695],101.7%,99.4 % of Negative Control
Cc1ccc(Nc2ccc(N3CCN(C(=O)Cc4ccc(F)cc4)CC3)nn2)cc1 [compound 49671361],-10.5%,102.4 % of Negative Control
c1ccc(Cn2nnc3c(Sc4ncco4)ncnc32)cc1 [compound 7471335],101.6%,4.1 % of Negative Control
O=C(CSc1ccc(F)cc1)N1CCC(c2ccsc2)CC1 [compound 71786989],16.0%,102.2 % of Negative Control
Cc1ccc(NS(=O)(=O)N2CCCCCC2)cc1Cl [compound 8720355],45.8%,71.9 % of Negative Control
COc1ccc(C2=CC(=O)C=CC2=O)cc1 [compound 121637],100.9%,3.0 % of Negative Control
O=C(NN1C(=O)/C(=C\c2ccco2)SC1=S)c1ccc(OC(F)F)cc1 [compound 1391595],65.6%,93.6 % of Negative Control
Cc1ccc2nc(Nc3ccncc3)nc(-c3ccccc3)c2c1 [compound 3516311],20.1%,72.7 % of Negative Control
Cc1ccc(C)c(S(=O)(=O)n2cnc3ccccc32)c1 [compound 700148],59.4%,84.1 % of Negative Control
O=C(c1ccc2nsnc2c1)N1CCSC(c2ccccc2Cl)CC1 (stereo not drawn) [compound 76151751],14.7%,97.8 % of Negative Control
CC(C)=CC(=O)Nc1ccc(OCc2ccccc2)cc1 [compound 731806],64.0%,91.1 % of Negative Control
O=C(c1ccc2cc[nH]c2c1)N1CCCCC(c2ccc(Cl)cc2)C1 (stereo not drawn) [compound 76150266],-14.0%,92.9 % of Negative Control
CC1CNc2ccccc2N(Cc2ccc(Br)cc2)C1=O (stereo not drawn) [compound 20896311],5.6%,94.5 % of Negative Control
Oc1ccc(-c2ccccc2)cc1Br [compound 27297],101.8%,4.7 % of Negative Control
NC(=O)c1ccsc1NC(=O)c1ccc(Cl)cc1Cl [compound 7167022],52.4%,83.5 % of Negative Control
CN1C(=O)c2cccc(NC(=O)c3ccnn3C)c2C1=O [compound 25835862],41.6%,104.6 % of Negative Control
COC(=O)C1=C(N)OC2=C(C(=O)CCC2)C1c1ccc(OC)c(OC)c1 (stereo not drawn) [compound 3355288],9.4%,104.5 % of Negative Control

SMILES,Yeast Inhibition: % Inhibition [1],Cytotoxicity: Relative Cell Viability (% of Negative Control) [2]
Nc1cc(Cl)c([N+](=O)[O-])cc1OCc1ccccc1 [compound 3521356],52.3%,102.1 % of Negative Control
O=C(/C=C/c1cccc(F)c1)c1ccc[nH]1 [compound 7185492],99.0%,40.0 % of Negative Control
O=C(Nc1cccc(C(F)(F)F)c1)C1=Cc2ccccc2OC1 [compound 1475928],77.9%,58.1 % of Negative Control
COc1ccc(CCNC(=O)c2cnn3c(-c4ccc(C)c(C)c4)ccnc23)cc1OC [compound 46074589],-4.7%,105.7 % of Negative Control
O=C(CCSc1ccc(Cl)cc1)Nc1ccc2scnc2c1 [compound 18585549],29.1%,96.1 % of Negative Control
Cc1ccc2occ(C=O)c(=O)c2c1 [compound 688709],100.0%,91.6 % of Negative Control
O=S(=O)(Nc1nc2c(F)cccc2s1)c1ccc(Cl)s1 [compound 16934170],-6.6%,77.5 % of Negative Control
O=C(NC1CCCC1)c1csc(Nc2ccccc2)n1 [compound 30860168],82.0%,93.7 % of Negative Control
Cc1ccc(N2C(=O)CC(Sc3ccccc3C(=O)O)C2=O)c(Br)c1 (stereo not drawn) [compound 2919713],67.2%,94.3 % of Negative Control
Cc1ccccc1N=c1scc(-c2ccc(F)cc2)n1CCO [compound 16955786],21.9%,85.9 % of Negative Control
CCOC(=O)c1c(-c2ccc(C)o2)csc1NC(=O)c1ccc2c(c1)OCCO2 [compound 1186249],44.6%,75.3 % of Negative Control
COc1ccc(CCNc2ncnc3scc(-c4cccs4)c23)cc1OC [compound 2008712],68.9%,97.9 % of Negative Control
NS(=O)(=O)c1ccc(NC(=O)CSC2CC(=O)N(c3ccc(Br)cc3)C2=O)cc1 (stereo not drawn) [compound 2974037],90.7%,102.2 % of Negative Control
Cc1nc(NC(=O)CCl)sc1C(=O)OCC(C)C [compound 2139195],99.1%,6.3 % of Negative Control
CN(Cc1ccccc1)C(=O)COc1ccc(Br)cc1 [compound 4690650],25.9%,66.8 % of Negative Control
CSC1=Nc2cccnc2Nc2ccccc21 [compound 16824016],20.9%,94.9 % of Negative Control
CCCCNC(=O)COc1c(C)cc(Br)cc1C [compound 1570496],47.1%,84.5 % of Negative Control
Oc1ccccc1-c1cc2ccccc2[nH]1 [compound 700009],82.2%,96.3 % of Negative Control
CCCc1cc(C(=O)OC)c(N2C(=O)C=CC2=O)s1 [compound 7456205],101.6%,4.1 % of Negative Control
CC(C)c1nc(-c2ccc(N3CCN(C(=O)Cc4cn(C)c5ccccc45)CC3)nc2)no1 [compound 71780502],-2.9%,91.8 % of Negative Control
COC(=O)c1c(NC(=O)c2ccc(C(C)(C)C)cc2)sc2c1CCN(C(C)C)C2 [compound 4684724],50.4%,34.9 % of Negative Control

# Reference: PMC8406298, “Discovery of Fungus-Specific Targets and Inhibitors Using Chemical Phenotyping of Pathogenic Spore Germination” (mBio, 2021)
